Results reported in patent publication US5077305A, “Thiazole carboxylic acids and esters” (Bristol-Myers Squibb Co., priority 1990, dated 1991).
Values after ≈ are worked out from the molar mass of the structure shown.

Tested on: human platelet aggregation (ADP-induced)
Format: cell-based
Conditions: human platelet rich plasma; ADP final concentration 0.5 mcg/mL; read-out: Inhibition of Human Platelet Aggregation IC50 Vs ADP

| IC50 [µg/mL] | Compound |
| --- | --- |
| 0.41 (≈ 0.955 µM) | COC(=O)COc1cccc(CCc2nc(-c3ccccc3)c(-c3ccccc3)s2)c1 [Example 1, Methyl (3-[2-(4,5-diphenyl-2-thiazolyl)ethyl]phenoxy]acetate] |
| 0.36 (≈ 0.866 µM) | O=C(O)COc1cccc(CCc2nc(-c3ccccc3)c(-c3ccccc3)s2)c1 [Example 2, [3-[2-(4,5-Diphenyl-2-thiazolyl)ethyl]phenoxy]acetic Acid] |
